# From ChEMBL document CHEMBL4402508, “Natural product-drug conjugates for modulation of TRPV1-expressing tumors” (Bioorg Med Chem, 2019)
# Calls of active or inactive are those of the source. The rule behind the calls is not given here.
# Key:
# [1] = Drug degradation in PBS assessed as hydrolysis of western conjugate region at 0.2 mM at 37 degC incubated up to 6 hrs by LC-MS analysis; format: physicochemical; details: buffer, 200 µM; for Drug degradation: TDE = time-dependent effect
# [2] = target: Transient receptor potential cation channel subfamily V member 1 (Homo sapiens) (UniProt Q8NER1); assay: Agonist activity at TRPV1 (unknown origin) expressed in HEK-293 cells assessed as induction of calcium influx at 50 uM incubated for 48 hrs by Fura2-AM dye based calcium imaging assay; format: cell-based
# [3] = test system: PC-3; assay: Cytotoxicity in […] expressing human PC3 cells assessed as reduction in cell viability at 200 uM incubated for 24 to 72 hrs by Cell-titer blue assay; format: functional, cell-based; details: TDE = time-dependent effect
# [4] = target: Transient receptor potential cation channel subfamily V member 1 (Homo sapiens) (UniProt Q8NER1); assay: Agonist activity at TRPV1 (unknown origin) expressed in HEK-293 cells assessed as induction of calcium influx at 50 uM incubated for 48 hrs by Fura2-AM dye based calcium imaging assay relative to capsaicin; format: cell-based
# [5] = target: Transient receptor potential cation channel subfamily V member 1 (Homo sapiens) (UniProt Q8NER1); assay: Agonist activity at TRPV1 (unknown origin) expressed in HEK-293 cells assessed as induction of calcium influx at 5 uM incubated for 48 hrs by Fura2-AM dye based calcium imaging assay; format: cell-based
# [6] = target: Transient receptor potential cation channel subfamily V member 1 (Homo sapiens) (UniProt Q8NER1); assay: Binding affinity to TRPV1 in human U251 cells assessed as compound internalization by measuring compound localization in intracellular compartment at 20 uM incubated for 24 hrs by azide-488 fluorophore based in situ click reaction assay and confocal microscopy; format: cell-based
# Chain of Transient receptor potential cation channel subfamily V member 1 (Homo sapiens) (Q8NER1 whole entry): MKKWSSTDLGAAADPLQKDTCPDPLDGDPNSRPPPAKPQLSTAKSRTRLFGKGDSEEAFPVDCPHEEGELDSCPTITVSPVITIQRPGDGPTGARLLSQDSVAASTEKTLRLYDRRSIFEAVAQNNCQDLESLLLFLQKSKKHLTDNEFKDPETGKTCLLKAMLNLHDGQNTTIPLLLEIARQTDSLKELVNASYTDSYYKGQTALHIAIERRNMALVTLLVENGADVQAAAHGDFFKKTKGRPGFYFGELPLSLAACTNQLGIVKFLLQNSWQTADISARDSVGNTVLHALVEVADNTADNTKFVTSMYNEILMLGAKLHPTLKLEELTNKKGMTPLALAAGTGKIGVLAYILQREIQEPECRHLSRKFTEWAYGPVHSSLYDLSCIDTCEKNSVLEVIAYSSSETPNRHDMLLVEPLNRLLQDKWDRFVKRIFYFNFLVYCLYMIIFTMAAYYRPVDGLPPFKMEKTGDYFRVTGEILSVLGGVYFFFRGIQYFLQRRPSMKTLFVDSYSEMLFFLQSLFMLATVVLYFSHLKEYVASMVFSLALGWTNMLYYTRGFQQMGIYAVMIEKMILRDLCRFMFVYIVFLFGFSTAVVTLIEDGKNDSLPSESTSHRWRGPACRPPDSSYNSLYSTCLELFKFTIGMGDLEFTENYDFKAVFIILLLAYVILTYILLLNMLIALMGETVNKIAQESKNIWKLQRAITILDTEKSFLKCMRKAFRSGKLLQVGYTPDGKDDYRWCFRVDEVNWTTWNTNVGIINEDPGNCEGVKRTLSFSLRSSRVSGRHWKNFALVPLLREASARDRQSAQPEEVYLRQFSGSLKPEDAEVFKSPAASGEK
Compound,Activity [2],Drug degradation [1],Activity [4] [%],Activity [5],Activity [6],Stability [1],Activity [3]
COc1cc(CNC(=O)CCCC/C=C/C(C)C)ccc1O [CAPSAICIN],–,–,–,–,–,Stable,–
C#CCCCCCCCCC(=O)NCc1ccc(O)c(OC)c1,–,–,–,Active,Active,–,–
Cn1nnc2c(C(N)=O)ncn2c1=O,–,–,–,–,–,–,Tde

# The next lines start with results.
Activity [2],Drug degradation [1],Activity [4] [%],Activity [5],Activity [6],Compound,Stability [1],Activity [3]
Active,Tde,40,–,–,COc1cc(CNC(=O)CCCCCCNC(=O)c2ncn3c(=O)n(C)nnc23)ccc1O,–,Tde
Active,Tde,40,–,–,COc1cc(CNC(=O)CCCCNC(=O)c2ncn3c(=O)n(C)nnc23)ccc1O,–,Tde
Active,Tde,40,–,–,COc1cc(CNC(=O)CNC(=O)c2ncn3c(=O)n(C)nnc23)ccc1O,–,Tde
